Among the test systems are OVCAR-5 ovarian; SK-OV-3 ovarian; MOLT-4 leukemia; RXF 393 renal; MALME-3M melanoma; SK-MEL-2 melanoma; SW-620 colon; IGROV1 ovarian; A498 renal; HCT-15 colon; NCI-H460 lung; HOP-92 NSCLC.
Holding throughout (assay): NCI tumour cell line growth inhibition, 48 h

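In this assay, cells in 96-well plates receive the compound at five concentrations for 48 hours. Endpoints are linearly interpolated between the surrounding concentrations. TGI: concentration producing complete growth inhibition.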

As for `COc1cccc(C2c3cc4c(cc3OC(NNS(=O)(=O)c3ccc(C)cc3)C2C)OCO4)c1OC` (centres undefined), the TGI stood at 74.2 µM in the assay on OVCAR-5 ovarian; 7.83 µM with SK-OV-3 ovarian; 9.02 µM with MOLT-4 leukemia; 21.6 µM in the assay on RXF 393 renal; 49.9 µM in the assay with MALME-3M melanoma; 7.18 µM in the assay on SK-MEL-2 melanoma. For the same compound, the TGI in the assay on SW-620 colon is greater than 100 µM; with IGROV1 ovarian, 15.3 µM; with A498 renal, 6.42 µM; with HCT-15 colon, 9.82 µM; with NCI-H460 lung it was 8.64 µM; in the assay with HOP-92 NSCLC, 7.18 µM.
For the compound `O=[S@]1c2ccc3ccccc3c2N[C@@H]2[C@H]1[C@H]1C=C[C@@H]2C1`, the TGI with OVCAR-5 ovarian was greater than 100 µM; in the assay on SK-OV-3 ovarian, greater than 100 µM; with MOLT-4 leukemia, greater than 100 µM; with RXF 393 renal, 95.1 µM; in the assay on MALME-3M melanoma, greater than 100 µM; with SK-MEL-2 melanoma, greater than 100 µM. Besides, the TGI in the assay on SW-620 colon, in the assay with IGROV1 ovarian, with A498 renal, with HCT-15 colon, with NCI-H460 lung and in the assay on HOP-92 NSCLC was greater than 100 µM in each case.
On to `Cc1c(N=C/C=C/c2ccccc2)c(=O)n(-c2ccccc2)n1C`, for which the TGI is greater than 100 µM with OVCAR-5 ovarian; greater than 100 µM in the assay on SK-OV-3 ovarian; 83.8 µM with MOLT-4 leukemia; greater than 100 µM with RXF 393 renal; 62.9 µM in the assay with MALME-3M melanoma; greater than 100 µM in the assay with SK-MEL-2 melanoma. Further, the TGI is 58.4 µM in the assay with SW-620 colon; greater than 100 µM in the assay with IGROV1 ovarian; 87.2 µM in the assay with A498 renal; greater than 100 µM with HCT-15 colon; greater than 100 µM in the assay with NCI-H460 lung; greater than 100 µM with HOP-92 NSCLC.
Turning to `CSCSCC(CO)NC(=O)/C(C)=C\c1c(C)[nH]c(=O)[nH]c1=O` (centres undefined), the TGI with OVCAR-5 ovarian, with SK-OV-3 ovarian, with MOLT-4 leukemia, in the assay with RXF 393 renal, with MALME-3M melanoma and with SK-MEL-2 melanoma was greater than 250 µM in each case. In addition, the TGI in the assay with SW-620 colon was greater than 250 µM; with IGROV1 ovarian, greater than 250 µM; with A498 renal, greater than 250 µM; in the assay on HCT-15 colon it was greater than 250 µM; in the assay with NCI-H460 lung, greater than 250 µM; in the assay with HOP-92 NSCLC, 23.9 µM.
As to `COc1ccc2c(c1)/C(=C\c1c(Cl)[nH]c3ccccc13)C(=O)N2`, the TGI amounted to 26.8 µM in the assay with OVCAR-5 ovarian; 9.87 µM with SK-OV-3 ovarian; 41 µM with MOLT-4 leukemia; 13.4 µM with RXF 393 renal; 19.2 µM in the assay on MALME-3M melanoma; 16.1 µM in the assay with SK-MEL-2 melanoma. The TGI worked out at 13.4 µM with SW-620 colon; 9.78 µM in the assay on IGROV1 ovarian; 23.7 µM in the assay with A498 renal; 37.2 µM in the assay with HCT-15 colon; 14.5 µM in the assay on NCI-H460 lung; 12.5 µM with HOP-92 NSCLC.
With `CC(C)(Cl)C(Br)CCC(Br)(CCl)C(Cl)CBr` (centres undefined), the TGI with OVCAR-5 ovarian, with SK-OV-3 ovarian, with MOLT-4 leukemia, with RXF 393 renal, in the assay with MALME-3M melanoma and with SK-MEL-2 melanoma was greater than 10 µM in each case. The TGI in the assay on SW-620 colon, in the assay on IGROV1 ovarian, in the assay on A498 renal, with HCT-15 colon, in the assay with NCI-H460 lung and in the assay on HOP-92 NSCLC was greater than 10 µM each time.
Take `COc1ccc2c(c1)CCCN1CCc3ccccc3C21` (centres undefined): the TGI in the assay with OVCAR-5 ovarian is greater than 100 µM; with SK-OV-3 ovarian, greater than 100 µM; in the assay with MOLT-4 leukemia, greater than 100 µM; with RXF 393 renal it was 73 µM; in the assay on MALME-3M melanoma, greater than 100 µM; in the assay with SK-MEL-2 melanoma it was greater than 100 µM. The TGI with SW-620 colon, in the assay on IGROV1 ovarian, in the assay on A498 renal, in the assay on HCT-15 colon, in the assay on NCI-H460 lung and in the assay with HOP-92 NSCLC was greater than 100 µM in each case.

Source of the values: PubChem BioAssay (NCI).
